Laboratory results reported in the CombiSolv-Exp solvation set (Vermeire and Green 2021).

Test: solvent given as SMILES

CCCCCCCC(=O)c1c(C)[nH]n(-c2ccccc2)c1=O
Details	solvation free energy, 298 K [kcal/mol]
in O	-8.85

CCNc1ccccc1
Details	solvation free energy, 298 K [kcal/mol]
in O	-4.76

C=C(C)C1CC=C(C=O)CC1 (configuration not stated)
Details	solvation free energy, 298 K [kcal/mol]
in O	-4.09

CCCCC(C)(C)O
Details	solvation free energy, 298 K [kcal/mol]
in CCCCCCCC	-5.29
in CCCCCCCCCC	-5.22

C=C(C)C1CCC2(C)CCC=C(C)C2C1 (configuration not stated)
Details	solvation free energy, 298 K [kcal/mol]
in O	-0.16

CC(C)OC(C)C
Details	solvation free energy, 298 K [kcal/mol]
in Brc1cccc2ccccc12	-3.49
in CC(=O)N(C)C	-3.41
in CC(=O)OCc1ccccc1	-3.49
in CC(C)CC(C)(C)C	-3.78
in CCC(C)=O	-3.9
in CCC(C)Cl	-4.16
in CCC(C)O	-3.75
in CCCCCCCC	-3.84
in CCCCCCCCCCO	-3.43
in CCCCCCCCO	-3.63
in CCCCCl	-4.18
in CCCCN(C=O)CCCC	-3.48
in CCCCO	-3.75
in CCCO	-3.79
in CCN1CCCC1=O	-3.23
in CCN(CC)C(C)=O	-3.51
in CCNC(C)=O	-3.33
in CCNC=O	-3.23
in CN1CCCCC1=O	-3.27
in CN(C)C=O	-3.19
in CNC(C)=O	-3.25
in CNC=O	-3.04
in CO	-3.82
in ClC(Cl)(Cl)Cl	-4.23
in [2H]O[2H]	-1.56
in c1ccc2ncccc2c1	-3.45

CC(=O)C(C)C(C)=O
Details	solvation free energy, 298 K [kcal/mol]
in O	-4.75

O=O
Details	solvation free energy, 298 K [kcal/mol]
in Brc1ccccc1	1.16
in C1CCCCC1	0.75
in C1CCOC1	0.82
in C1COCCO1	1.1
in CC(C)(C)O	0.78
in CC(C)=O	0.76
in CC(C)CC(C)(C)C	0.51
in CC(C)CO	0.89
in CC(C)O	0.89
in CCC(C)=O	0.76
in CCC(C)O	0.91
in CCCC(C)=O	0.81
in CCCCC(C)=O	0.86
in CCCCCC	0.59
in CCCCCCC	0.64
in CCCCCCCC	0.7
in CCCCCCCCC	0.73
in CCCCCCCCCC	0.77
in CCCCCCCCCCC	0.79
in CCCCCCCCCCCC	0.83
in CCCCCCCCCCCCC	0.87
in CCCCCCCCCCCCCC	0.89
in CCCCCCCCCCCCCCC	0.92
in CCCCCCCCCCCCCCCC	0.94
in CCCCCCCCCCCO	1.1
in CCCCCCCCCCO	1.09
in CCCCCCCCCO	1.06
in CCCCCCCCO	1.04
in CCCCCCCO	1.02
in CCCCCCO	0.98
in CCCCCO	0.95
in CCCCO	0.93
in CCCCOCCCC	0.78
in CCCO	0.9
in CCCOCCC	0.65
in CCO	0.85
in CCOC(C)=O	0.9
in CCOCC	0.48
in CNC=O	1.12
in CO	0.82
in COC(C)=O	0.77
in Cc1ccc(C)cc1	0.83
in Cc1cccc(C)c1	0.85
in Cc1ccccc1C	0.88
in ClC(Cl)(Cl)Cl	0.71
in ClC(Cl)Cl	0.97
in ClCCCl	1.09
in ClCCl	0.9
in Clc1ccccc1	1
in Fc1ccccc1	0.56
in Ic1ccccc1	1.3
in O	2.06
in O=C1CCCC1	1.1
in O=C1CCCCC1	1.13

CCC(C)C
Details	solvation free energy, 298 K [kcal/mol]
in C1=Cc2ccccc2C1	-2.54
in C=CCCCCCCCCCCCCCC	-2.66
in CC#N	-1.9
in CC(=O)N(C)C	-1.98
in CC(C)(C)O	-2.56
in CCCCCCCCCCCCCCCC	-2.76
in CCCCCCCCCOC(=O)c1ccccc1C(=O)OCCCCCCCCC	-2.36
in CCNC(C)=O	-2.22
in CN1CCCC1=O	-1.8
in CN1CCCCC1=O	-2.01
in CN(C)C=O	-1.9
in CN(C)P(=O)(N(C)C)N(C)C	-2
in CNC(C)=O	-2.03
in CNC=O	-1.57
in ClC(Cl)C(Cl)Cl	-2.38
in Clc1cccc2ccccc12	-2.24
in Ic1ccccc1	-2.37
in N#CCCCCC#N	-1.06
in N#CCc1ccccc1	-1.78
in N#Cc1ccccc1	-2.21
in O	2.39
in O=C1CCCCC1	-2.58

CCC=O
Details	solvation free energy, 298 K [kcal/mol]
in C1CCOC1	-3.82
in C=CCCCCCCCCCCCCCC	-2.47
in CC(C)CCCC(C)CCCC(C)CCCCC(C)CCCC(C)CCCC(C)C	-2.57
in CCC(C)=O	-3.85
in CCCCCCCC	-2.54
in CCCCCCCCCCCCCCCC	-2.41
in CCCCCCCCO	-4.15
in NC=O	-3.26
in O	-3.35
in [2H]O[2H]	-3.31

ClCCCl
Details	solvation free energy, 298 K [kcal/mol]
in Brc1cccc2ccccc12	-4.18
in C1CCOC1	-5.01
in C1COCCO1	-4.98
in CC(=O)CC(C)C	-4.68
in CC(=O)N(C)C	-5.01
in CC(=O)OCc1ccccc1	-4.59
in CC(C)OC(C)C	-3.88
in CCC(C)=O	-4.79
in CCCCCC	-3.75
in CCCCCCC	-3.7
in CCCCCCCC	-3.7
in CCCCCCCCCCCCCC	-3.49
in CCCCCCCCCCCCCCCC	-3.52
in CCCCCCCCN(CCCCCCCC)CCCCCCCC	-3.6
in CCCCCCCCO	-3.78
in CCCCCN(CCCCC)CCCCC	-3.76
in CCCCCl	-4.42
in CCCCN(C=O)CCCC	-4.62
in CCCCN(CCCC)CCCC	-3.65
in CCCCO	-3.98
in CCCCOCCCC	-4.16
in CCO	-4.03
in CCOC(C)=O	-4.72
in CCOCC	-4.45
in CNC(C)=O	-4.45
in COC(=O)OC	-4.73
in COC(C)(C)C	-4.35
in Cc1ccc(C)cc1	-4.41
in Cc1cccc(C)c1	-4.45
in Cc1ccccc1C	-4.42
in ClC(Cl)(Cl)Cl	-4.3
in ClC(Cl)Cl	-4.69
in O	-1.79
in [2H]O[2H]	-1.89
in c1ccc2ncccc2c1	-4.54
in c1ccccc1	-4.68

COC=O
Details	solvation free energy, 298 K [kcal/mol]
in C=CCCCCCCCCCCCCCC	-1.95
in CC(=O)N(C)C	-3.41
in CCCCCCCCCCCCCCCC	-1.94
in CCCCN(C=O)CCCC	-2.97
in CCOCCO	-3.08
in CN1CCCC1=O	-3.71
in CNC(C)=O	-3.15
in CS(C)=O	-3.28
in NC=O	-3.07
in O	-2.78
in [2H]O[2H]	-2.82

CCCCCCCOC(=O)c1ccccc1C(=O)OCCCCCC
Details	solvation free energy, 298 K [kcal/mol]
in O	-6.67

CCCN(C)N=O
Details	solvation free energy, 298 K [kcal/mol]
in CC(C)CC(C)(C)C	-4.99

OC(CCl)CCl
Details	solvation free energy, 298 K [kcal/mol]
in CCCCOC(C)=O	-7.58
in Clc1ccccc1	-6.02

c1ccc2c(c1)Cc1ccccc1C2
Details	solvation free energy, 298 K [kcal/mol]
in O	-3.78

C=CC(C)(O)CCC=C(C)C (configuration not stated)
Details	solvation free energy, 298 K [kcal/mol]
in O	-4.17
